Laboratory results: patent US10550105B2 (Ribon Therapeutics Inc., priority 2018, dated 2020)

target: PARP7 (Homo sapiens (Human), UniProt Q7Z3E1); assay: Enzymatic assay for inhibition of PARP7: TR-FRET displacement of biotinylated Probe A from the TIPARP active site; type: binding; settings: Table A-1
Procedure, shortened: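 Compound dose-response series were incubated with TIPARP and biotinylated Probe A, with a final 30 min step at 25 °C. TR-FRET was read at 320 nm excitation, 615/665 nm emission and 90 μs delay, using the 665/615 ratio to measure complex formation. % inhibition was fitted with a floating or fixed (1) Hill coefficient.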

PARP7, sequence (Q7Z3E1 whole entry): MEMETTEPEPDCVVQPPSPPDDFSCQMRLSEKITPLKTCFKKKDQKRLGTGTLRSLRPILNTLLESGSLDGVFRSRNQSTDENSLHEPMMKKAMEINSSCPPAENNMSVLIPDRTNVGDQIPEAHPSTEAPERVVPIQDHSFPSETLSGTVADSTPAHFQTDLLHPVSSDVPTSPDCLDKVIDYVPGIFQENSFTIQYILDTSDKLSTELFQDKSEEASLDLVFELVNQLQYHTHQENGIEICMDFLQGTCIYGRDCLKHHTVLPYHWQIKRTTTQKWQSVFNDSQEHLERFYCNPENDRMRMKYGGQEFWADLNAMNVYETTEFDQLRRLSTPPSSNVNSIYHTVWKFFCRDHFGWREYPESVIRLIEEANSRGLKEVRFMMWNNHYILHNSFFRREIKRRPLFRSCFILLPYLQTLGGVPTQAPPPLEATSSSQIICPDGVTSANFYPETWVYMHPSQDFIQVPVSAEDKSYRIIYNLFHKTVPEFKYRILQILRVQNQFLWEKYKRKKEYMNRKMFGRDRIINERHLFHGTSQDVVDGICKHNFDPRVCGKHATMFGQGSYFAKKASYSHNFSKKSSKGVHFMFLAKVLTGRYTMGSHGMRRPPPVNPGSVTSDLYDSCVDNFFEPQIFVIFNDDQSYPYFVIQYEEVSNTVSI

`CN(c1cccc2c1CN(c1cn[nH]c(=O)c1C(F)(F)F)C2)C1CCNCC1` [Example 302, 5-(4-(Methyl(piperidin-4-yl)amino)isoindolin-2-yl)-4-(trifluoromethyl)pyridazin-3(2H)-one] and `CC(=O)Nc1cccc2c1CN(c1cn[nH]c(=O)c1C(F)(F)F)C2` [Example 179, N-(2-(6-Oxo-5-(trifluoromethyl)-1,6-dihydropyridazin-4-yl)isoindolin-4-yl)acetamide] fall in the same range of IC50: 100 to 1000 nM for the first, 100 to 1000 nM for the second.

Compared with `C[C@@H](COCCC(=O)N1CCN(c2ccc(C#N)cn2)CC1)Oc1cn[nH]c(=O)c1C(F)(F)F` [Example 530A, 6-(4-[3-[(2S)-2-[[6-Oxo-5-(trifluoromethyl)-1,6-dihydropyridazin-4-yl]oxy]propoxy]propanoyl]piperazin-1-yl)pyridine-3-carbonitrile], `C[C@H](CC(=O)N1CCN(c2ccc(C#N)cn2)CC1)OCCOc1cn[nH]c(=O)c1C(F)(F)F` (single isomer, unassigned) [Example 538 Isomer A] is higher in IC50: < 100 nM for the first, 100 to 1000 nM for the second. The first is the more potent here.

Going from `O=C(c1cccc(OCC2c3ccccc3CN2c2cn[nH]c(=O)c2C(F)(F)F)c1)N1CCNCC1` (stereo not shown) [Example 363, 5-(1-((3-(Piperazine-1-carbonyl)phenoxy)methyl)isoindolin-2-yl)-4-(trifluoromethyl)pyridazin-3(2H)-one] to `N#Cc1cnc(N2CCN(C(=O)c3cc(OC[C@@H]4c5ccccc5CN4c4cn[nH]c(=O)c4C(F)(F)F)ccn3)CC2)nc1` (single isomer, unassigned) [Example 64 Isomer B], the IC50 falls from ≥ 1000 nM to < 100 nM. The second is the more potent here.

`CC(=O)N1CCC(Oc2cc3c(cc2F)CN(c2cn[nH]c(=O)c2C(F)(F)F)C3C)CC1` (stereo not shown) [Example 5, 5-[6-[(1-acetylpiperidin-4-yl)oxy]-5-fluoro-1-methyl-2,3-dihydro-1H-isoindol-2-yl]-4-(trifluoromethyl)-2,3-dihydropyridazin-3-one] and `CC(=O)N1CCC(Oc2cccc3c2CN(c2cn[nH]c(=O)c2Cl)C3)CC1` [Example 258, 5-(4-((1-Acetylpiperidin-4-yl)oxy)isoindolin-2-yl)-4-chloropyridazin-3(2H)-one] cannot be ordered by IC50: 100 to 1000 nM for the first, ≥ 1000 nM for the second.

First: O=C(CC1CCC(COc2cn[nH]c(=O)c2C(F)(F)F)N1)N1CCN(c2ncc(C(F)(F)F)cn2)CC1 (stereo not shown) [Example 642, 5-((5-(2-Oxo-2-(4-(5-(trifluoromethyl)pyrimidin-2-yl)piperazin-1-yl)ethyl)pyrrolidin-2-yl)methoxy)-4-(trifluoromethyl)pyridazin-3(2H)-one]
Second: C[C@@H](CN(C)CCC(=O)N1CCN(c2ncc(C(F)(F)F)cn2)CC1)Oc1cn[nH]c(=O)c1C(F)(F)F [Example 616, (S)-5-((1-(Methyl(3-oxo-3-(4-(5-(trifluoromethyl)pyrimidin-2-yl)piperazin-1-yl)propyl)amino)propan-2-yl)oxy)-4-(trifluoromethyl)pyridazin-3(2H)-one]
The IC50 of the first is higher: 100 to 1000 nM for the first, < 100 nM for the second.

`O=c1[nH]ncc(N2Cc3cccc(OC[C@@H]4CCCO4)c3C2)c1C(F)(F)F` (single isomer, unassigned) [Example 222] and `O=c1[nH]ncc(N2Cc3ccc(OCCO)cc3C2)c1C(F)(F)F` [Example 177, 5-(5-(2-Hydroxyethoxy)isoindolin-2-yl)-4-(trifluoromethyl)pyridazin-3(2H)-one] cannot be ordered by IC50: < 100 nM for the first, < 100 nM for the second.

`CN1CCC(Oc2cccc3c2CN(c2cn[nH]c(=O)c2Cl)C3)C1` (stereo not shown) [Example 259, 4-Chloro-5-(4-((1-methylpyrrolidin-3-yl)oxy)isoindolin-2-yl)pyridazin-3(2H)-one] and `NCC1c2ccccc2CN1c1cn[nH]c(=O)c1Cl` (stereo not shown) [Example 231, 5-(1-(Aminomethyl)isoindolin-2-yl)-4-chloropyridazin-3(2H)-one] cannot be ordered by IC50: ≥ 1000 nM for the first, ≥ 1000 nM for the second.

First: N#Cc1ccc(N2CCN(C(=O)c3cccc(OCC4COCCN4c4cn[nH]c(=O)c4C(F)(F)F)c3)CC2)nc1 (stereo not shown) [Example 71, 6-(4-[[3-([4-[6-oxo-5-(trifluoromethyl)-1,6-dihydropyridazin-4-yl]morpholin-3-yl]methoxy)phenyl]carbonyl]piperazin-1-yl)pyridine-3-carbonitrile]
Second: N#Cc1ccc(N2CCN(C(=O)c3cncc(OCC4CCCN4c4cn[nH]c(=O)c4C(F)(F)F)c3)CC2)nc1 (stereo not shown) [Example 442, 6-(4-(5-((1-(6-Oxo-5-(trifluoromethyl)-1,6-dihydropyridazin-4-yl)pyrrolidin-2-yl)methoxy)nicotinoyl)piperazin-1-yl)nicotinonitrile]
The IC50 of the first is higher: 100 to 1000 nM for the first, < 100 nM for the second.

`C[C@@H](COCCS(=O)(=O)N1CCN(c2ncc(C(F)(F)F)s2)CC1)Nc1cn[nH]c(=O)c1Br` [Example 732, (S)-4-Bromo-5-((1-(2-((4-(5-(trifluoromethyl)thiazol-2-yl)piperazin-1-yl)sulfonyl)ethoxy)propan-2-yl)amino)pyridazin-3(2H)-one] and `C[C@@H](COCCC(=O)N1CCN(c2ccc(Cl)cn2)CC1)Nc1cn[nH]c(=O)c1C(F)(F)F` [Example 563, 5-[[(2S)-1-[3-[4-(5-Chloropyridin-2-yl)piperazin-1-yl]-3-oxopropoxy]propan-2-yl]amino]-4-(trifluoromethyl)-2,3-dihydropyridazin-3-one] cannot be ordered by IC50: < 100 nM for the first, < 100 nM for the second.

`N#Cc1ccc(N2CCN(C(=O)C3CC(OC[C@@H]4CCN(c5cn[nH]c(=O)c5C(F)(F)F)C4)C3)CC2)nc1` (stereo partly drawn) [Example 121A, 6-(4-((1R,3R)-3-((1-(6-oxo-5-(trifluoromethyl)-1,6-dihydropyridazin-4-yl)pyrrolidin-3-yl)methoxy)cyclobutanecarbonyl)piperazin-1-yl)nicotinonitrile] and `N#Cc1ccc(N2CCN(C(=O)/C=C/COC[C@@H]3CCCN3c3cn[nH]c(=O)c3C(F)(F)F)CC2)nc1` (single isomer, unassigned) [Example 96 Isomer B] cannot be ordered by IC50: < 100 nM for the first, < 100 nM for the second.

`Cc1c(N2Cc3ccc(OCCO)cc3C2)cn[nH]c1=O` [Example 188, 5-(5-(2-Hydroxyethoxy)isoindolin-2-yl)-4-methylpyridazin-3(2H)-one] and `O=c1[nH]ncc(N2Cc3ccccc3C2CO)c1C(F)(F)F` (stereo not shown) [Example 235, 5-(1-(Hydroxymethyl)isoindolin-2-yl)-4-(trifluoromethyl)pyridazin-3(2H)-one] cannot be ordered by IC50: 100 to 1000 nM for the first, ≥ 1000 nM for the second.

`N#Cc1ccc(N2CCN(C(=O)C[C@H]3CC[C@@H]([C@H]4c5ccccc5CN4c4cn[nH]c(=O)c4C(F)(F)F)O3)CC2)nc1` (single isomer, unassigned) [Example 612 Isomer A] and `N#Cc1ccc(N2CCN(C(=O)C/C=C\OC[C@H]3c4ccccc4CN3c3cn[nH]c(=O)c3C(F)(F)F)CC2)nc1` (single isomer, unassigned; isomer b) [Example 79 Isomer B] cannot be ordered by IC50: < 100 nM for the first, < 100 nM for the second.

`N#Cc1ccc(N2CCN(C(=O)c3cncc(OC[C@@H]4c5ccccc5CN4c4cn[nH]c(=O)c4C(F)(F)F)n3)CC2)nc1` (single isomer, unassigned) [Example 72 Isomer A] and `N#Cc1ccc(N2CCN(C(=O)c3ccnc(OCC4c5ccccc5CN4c4cn[nH]c(=O)c4C(F)(F)F)n3)CC2)nc1` (stereo not shown) [Example 383, 6-(4-(2-((2-(6-Oxo-5-(trifluoromethyl)-1,6-dihydropyridazin-4-yl)isoindolin-1-yl)methoxy)pyrimidine-4-carbonyl)piperazin-1-yl)nicotinonitrile] cannot be ordered by IC50: < 100 nM for the first, < 100 nM for the second.

`C[C@@H](COCCC(=O)N1CCN(c2ncc(C(F)(F)F)cn2)CC1)Sc1cn[nH]c(=O)c1Br` [Example 700, (S)-4-Bromo-5-((1-(3-oxo-3-(4-(5-(trifluoromethyl)pyrimidin-2-yl)piperazin-1-yl)propoxy)propan-2-yl)thio)pyridazin-3(2H)-one] and `C[C@H](O)[C@@H](COCCC(=O)N1CCN(c2ncc(C(F)(F)F)cn2)CC1)Nc1cn[nH]c(=O)c1C(F)(F)F` [Example 611, 5-[[(2R,3S)-3-Hydroxy-1-(3-oxo-3-[4-[5-(trifluoromethyl)pyrimidin-2-yl]piperazin-1-yl]propoxy)butan-2-yl]amino]-4-(trifluoromethyl)-2,3-dihydropyridazin-3-one] cannot be ordered by IC50: < 100 nM for the first, < 100 nM for the second.

`N#Cc1ccc(N2CCN(C(=O)CCO[C@H]3CC[C@H]3Nc3cn[nH]c(=O)c3C(F)(F)F)CC2)nc1` [Example 541, 6-(4-[3-[(1S,2R)-2-[[6-Oxo-5-(trifluoromethyl)-1,6-dihydropyridazin-4-yl]amino]cyclobutoxy]propanoyl]piperazin-1-yl)pyridine-3-carbonitrile] and `N#Cc1ccc(N2CCN(C(=O)CCOC[C@H]3c4ncccc4CN3c3cn[nH]c(=O)c3C(F)(F)F)CC2)nc1` [Example 137B, 6-[4-(3-[[(7R)-6-[6-oxo-5-(trifluoromethyl)-1,6-dihydropyridazin-4-yl]-5H,6H,7H-pyrrolo[3,4-b]pyridin-7-yl]methoxy]propanoyl)piperazin-1-yl]pyridine-3-carbonitrile] cannot be ordered by IC50: < 100 nM for the first, < 100 nM for the second.

First: O=C(CCOC[C@H]1c2ccccc2CN1c1cn[nH]c(=O)c1Cl)N1CCN(c2ncc(C(F)(F)F)cn2)CC1 [Example 416, (R)-4-Chloro-5-(1-((3-oxo-3-(4-(5-(trifluoromethyl)pyrimidin-2-yl)piperazin-1-yl)propoxy)methyl)isoindolin-2-yl)pyridazin-3(2H)-one]
Second: C[C@@H](COCCC(=O)N1CCN(c2cnc(C(F)(F)F)cn2)CC1)Oc1cn[nH]c(=O)c1C(F)(F)F [Example 662, (S)-5-((1-(3-Oxo-3-(4-(5-(trifluoromethyl)pyrazin-2-yl)piperazin-1-yl)propoxy)propan-2-yl)oxy)-4-(trifluoromethyl)pyridazin-3(2H)-one]
The IC50 of the first is higher: 100 to 1000 nM for the first, < 100 nM for the second. The second is the more potent here.

Compared with `CN(CCOCCCN1CCN(c2ccc(C#N)cn2)CC1)c1cn[nH]c(=O)c1C(F)(F)F` [Example 526, 6-[4-[3-(2-[Methyl[6-oxo-5-(trifluoromethyl)-1,6-dihydropyridazin-4-yl]amino]ethoxy)propyl]piperazin-1-yl]pyridine-3-carbonitrile], `N#Cc1ccc(N2CCN(C(=O)c3cccc(OCc4cccc5c4CN(c4cn[nH]c(=O)c4C(F)(F)F)C5)c3)CC2)nc1` [Example 488, 6-(4-(3-((2-(6-Oxo-5-(trifluoromethyl)-1,6-dihydropyridazin-4-yl)isoindolin-4-yl)methoxy)benzoyl)piperazin-1-yl)nicotinonitrile] is lower in IC50: 100 to 1000 nM for the first, < 100 nM for the second. The second is the more potent here.
